In patent US20240342148A1, “METHODS OF TREATING FACIOSCAPULOHUMERAL MUSCULAR DYSTROPHY WITH LOSMAPIMOD” (Fulcrum Therapeutics, Inc., priority 2021, published 2024):

Tested on: subjects with FSHD
Assay: WB-MSK MRI composite scores (MFI, MFF, LMV)
Type: in vivo, human
Description: The images were acquired in five different sections. The rotator cuff was imaged using a neck coil, torso and legs using anterior surface coils and integrated table coils, and the upper extremities using a surface and table coils, after the patient was repositioned such that the extremity was in the center of the MRI scanner. T1-weighted Dixon-images of 18 muscles bilaterally, 36 total, were acquired and water and fat images were reconstructed using the scanner built-in phase-sensitive reconstruction (Siemens: Dixon-Vibe; Philips: mDixon). Three different measures were calculated for each muscle. The muscle fat fraction (MFF) is the total fat fraction inside the muscle fascia. The muscle fat infiltration (MFI) represents the diffuse fat infiltration in the muscle tissue and is defined as the fat fraction of the muscle voxels that contain <50% fat. Therefore, MFI measures the MFF for muscle tissue that is not end-stage. The lean muscle volume (LMV) represents the total amount of functional muscle tissue and is measured by removing all fat within the muscle volume. Each muscle was categorized based on these measures and supported by prior literature as normal appearing (Category A, MFI<0.10; MFF<0.50), intermediate (Category B, MFI≥0.10; MFF<0.50), and late-stage (Category C, MFF≥0.50). Two composite scores were used to assess the treatment efficacy and correlation with relevant clinical outcome assessments. The treatment efficacy composite score includes only those muscles identified as normal appearing or at high risk for progression (Category A or B muscles) at baseline that were measurable at both observation timepoints, having no signal quality issues. The regional composite scores for correlations are composed of all muscles that were involved in the specific functional assessment of interest regardless of their categorization (FIG. 2). The scores were derived by scientists at the MRI Service Provider (AMRA Medical Inc.) in a blinded fashion, with no access to treatment assignment information. Measurements for muscles with major quality issues, (i.e., muscles with missing values), were imputed. Late-stage muscles were not included in the analysis as these contain high fat fraction which makes them challenging to quantify accurately, and likely are already not functional. A mixed-effects model for repeated measures (MMRM) was used to analyze the change from baseline in each composite MRI score (MFFtotal, LMVtotal, and MFItotal), with repeat number category, treatment group, visit, and treatment-by-visit interactions as fixed effects and baseline value of the parameter as a covariate. […]

Cc1c(F)cc(C(=O)NC2CC2)cc1-c1ccc(C(=O)NCC(C)(C)C)cn1 [losmapimod, 6-(5-cyclopropylcarbamoyl-3-fluoro-2-methyl-phenyl)-N-(2,2-dimethylpropyl-)-nicotinamide]
MFI or MFF in normal appearing muscles at baseline (A muscles), post-hoc (A muscles, compared to placebo): little or no accumulation of fat | LMV vs placebo (B muscles): no difference | MFF fat replacement vs placebo (B muscles): nonsignificant reduction | MFI efficacy composite vs placebo (muscles at high risk of progression (B muscles), p=0.01): significantly less fat infiltration
